Measured values: US7601717B2, “Pterin analogs” (BioMarin Pharmaceutical Inc., priority 2008, dated 2009)

Experiments:
Format in all cases: in vitro ADME
Settings in all cases: over a 60 minute period, compound remaining
[1] = Stability in simulated gastric fluid
Protocol: (§1) The stability of various compounds as disclosed herein was tested in human and rat and in simulated gastric fluid. Each compound was tested over an hour period for concentration of the compound remaining at each time point. The results are shown in FIGS. 3 (human plasma stability), 4 (rat plasma stability), and 5 (simulated gastric fluid stability) for the compounds of Example 2, 3, 4, and 20.

[2] = Stability in human plasma
Protocol: as §1

[3] = Stability in rat plasma
Protocol: as §1

C[C@H](O)[C@H](O)[C@H]1CNc2nc(N)[nH]c(=O)c2N1C(=O)OCc1ccccc1 (stereo in doubt) [Example 20, 2-Amino-6-(1,2-dihydroxy-propyl)-4-oxo-4,6,7,8-tetrahydro-1H-pteridine-5-carboxylic acid benzyl ester]
high level of stability: stability in simulated gastric fluid [1] | stability in human plasma [2] | stability in rat plasma [3]
